From patent publication US20260315475A1 (priority 2023, published 2026)
pIC50: −log10 of the molar value. Like-named read-outs stand apart in the source and are kept apart here.

What was measured:
[1] = cited from earlier work
CYP3A4 = conditions: role: substrate; in vitro; cited from earlier work
CYP2C8 = conditions: role: substrate; in vitro; cited from earlier work
pro-fibrotic signaling = conditions: in vitro; cited from earlier work
OATP1B1 = conditions: role: inhibitor; clinically relevant concentrations, in vitro; cited from earlier work
[2] = single dose, high-fat high-calorie meal vs fasted, healthy subjects; cited from earlier work
[3] = single oral dose, radiolabeled, healthy subjects; cited from earlier work
P-gp [4] = conditions: role: substrate; in vitro; cited from earlier work
CYP1A2 = conditions: role: inhibitor; in vitro; cited from earlier work
[5] = dogs; cited from earlier work
[6] = Safety and tolerability in the Phase I hepatic impairment study; type: in vivo, human
Description: The secondary objectives were: to evaluate the safety and tolerability of a single oral dose of belumosudil in participants with mild, moderate, or severe hepatic impairment, and in healthy participants with normal hepatic function; to assess the PK of the belumosudil metabolites following a single oral dose of belumosudil in participants with mild, moderate, or severe hepatic impairment compared to healthy participants with normal hepatic function. […]
The secondary/safety endpoints were: incidence and severity of adverse events (AEs), clinical laboratory parameters (hematology, clinical chemistry, coagulation, and urinalysis), 12-lead electrocardiogram (ECG) parameters, vital signs parameters, and physical examinations.
Treatment-emergent AEs (TEAEs) were summarized by severity and relationship to the investigational medicinal product (IMP). The frequency of TEAEs was summarized by Medical Dictionary for Regulatory Activities system organ class and preferred term, and hepatic function. Summary and frequency TEAE tables were presented for all causalities and for those considered related to the IMP.
Serum biochemistry, hematology, and coagulation data were summarized by hepatic function. In addition, all serum biochemistry, hematology, and urinalysis data outside the clinical reference ranges were listed by parameter and treatment. Vital signs and ECG data were summarized by hepatic function, together with changes from baseline.

[7] = 275 mg/kg/day oral, cited from earlier work
BCRP = conditions: role: inhibitor; clinically relevant concentrations, in vitro; cited from earlier work
[8] = Changes in belumosudil exposure in subjects with hepatic impairment compared to subjects with normal hepatic function; type: in vivo, human; conditions: single 200 mg
ROCK2 = conditions: cited from earlier work
bacteria = conditions: in vitro; cited from earlier work
[9] = Embryo-fetal developmental study in rabbits; type: in vivo; conditions: rabbit
[10] = 200 and 400 mg; cited from earlier work
[11] = age 18 to 77 years, weight 38.6 to 143 kg, mild to moderate renal impairment; cited from earlier work
CYP2D6 [12] = conditions: role: inhibitor; in vitro; cited from earlier work
UGT1A9 = conditions: role: inhibitor; in vitro; cited from earlier work
CYP2D6 [13] = conditions: role: substrate; in vitro; cited from earlier work
[14] = system: human peripheral blood lymphocytes (HPBL); conditions: in vitro; cited from earlier work
rat bone marrow = conditions: in vivo; cited from earlier work
[15] = in vivo; cited from earlier work
P-gp [16] = conditions: role: inhibitor; clinically relevant concentrations, in vitro; cited from earlier work
[17] = cited from earlier work; remark: listed apart in the source
[18] = pregnant rabbits, cited from earlier work
CYP2C19 = conditions: role: inhibitor; in vitro; cited from earlier work
[19] = Embryo-fetal development studies in rats; type: in vivo; conditions: rat
Description: In the pilot study, maternal toxicity and embryo-fetal developmental effects were observed. Maternal toxicity (reduced body weight gain) occurred at 150 and 300 mg/kg/day doses. Increased post-implantation loss occurred at 50 and 300 mg/kg/day.

[20] = moderate hepatic impairment group
[21] = moderate (Child-Pugh B) vs normal
[22] = severe (Child-Pugh C) vs normal
[23] = healthy subjects, coadministered omeprazole
[24] = healthy subjects, coadministered rabeprazole
[25] = healthy subjects, coadministered rifampin

## CC(C)NC(=O)COc1cccc(-c2nc(Nc3ccc4[nH]ncc4c3)c3ccccc3n2)c1 [belumosudil, 2-{3-[4-(1H-indazol-5-ylamino)-2-quinazolinyl]phenoxy}-N-(propan-2-yl) acetamide]
[1]; rats
  dose with decreased follicular development in ovaries: […]
[1]; recovery period, rats and dogs
  reversal of reproductive organ changes: partially or fully reversed
CYP3A4
  metabolism by CYP3A4: primarily metabolized
CYP2C8
  metabolism by CYP2C8: to a lesser extent
pro-fibrotic signaling
  aberrant pro-fibrotic signaling: inhibits aberrant pro-fibrotic signaling
OATP1B1
  OATP1B1 inhibition: inhibits
[2]
  increase in AUC with food: […]
  increase in Cmax with food: […]
[3]
  radioactivity recovered in feces: 85%
P-gp [4]
  P-gp substrate: substrate
CYP1A2
  CYP1A2 inhibition: inhibitor
[5]
  dose with spermatozoa degeneration: […]
[6]; individual participants
  12-lead ECG parameters: no clinically significant changes
  vital signs parameters: no clinically significant changes
[6]; [20]
  number of SAEs: […]
  number of TEAEs: […]
[6]; moderate hepatic impairment group, 1 participant
  participants reporting TEAEs: […]
[6]; single oral 200 mg
  AEs related to study drug: no reports of AEs related to study drug
  deaths: no reports of deaths
  discontinuation due to an AE: no participants discontinued due to an AE
[6]; throughout the study
  clinical chemistry, hematology, coagulation, or urinalysis: no clinically significant changes
  physical examinations: no clinically significant findings
[7]
  adverse findings in female rats (pre-/post-implantation loss, viable embryos): increased pre- or post-implantation loss and decreased number of viable embryos
  fertility of treated males or females: Fertility was reduced in both treated males or females
[7]; male rats
  sperm findings: abnormal sperm findings (reduced motility, reduced count, and increased percentage of abnormal sperm)
  testes/epididymis organ changes: reduced weight and degeneration
BCRP
  BCRP inhibition: inhibits
[8]; mild (Child-Pugh A) vs normal
  AUC change, free concentrations: decrease: […]
  AUC change, total (free + bound): increase: […]
  Cmax change, free concentrations: decrease: […]
  Cmax change, total (free + bound): increase: […]
[8]; [21]
  Cmax change, total (free + bound): decrease: 6%
[8]; [22]
  AUC change, free concentrations: increase: […]
  AUC change, total (free + bound): increase: […]
  Cmax change, free concentrations: increase: […]
  Cmax change, total (free + bound): increase: […]
ROCK2
  pIC50: […]
bacteria
  genotoxicity, bacterial mutagenicity (Ames): […]
[9]
  maternal exposure (AUC) multiple of human exposure with adverse developmental outcomes: […]
[10]
  dose proportionality of Cmax and AUC: increased in an approximately proportional manner
[11]
  differences in belumosudil pharmacokinetics by age, sex, weight, renal impairment: No clinically significant differences
CYP2D6 [12]
  CYP2D6 inhibition: inhibitor
UGT1A9
  UGT1A9 inhibition: inhibitor
CYP2D6 [13]
  metabolism by CYP2D6: to a lesser extent
[14]
  genotoxicity, chromosome aberration: […]
Rat bone marrow
  genotoxicity, micronucleus: […]
[15]
  activity in animal models of chronic GVHD: demonstrates activity
P-gp [16]
  P-gp inhibition: inhibits
[17]; coadministered proton pump inhibitors
  effect of proton pump inhibitors on belumosudil exposure: decreases belumosudil exposure
[17]; coadministered strong CYP3A inducers
  effect of strong CYP3A inducers on belumosudil exposure: decreases belumosudil exposure
[17]; healthy subjects, coadministered itraconazole
  effect of itraconazole on belumosudil exposure: no clinically meaningful effect on belumosudil exposure
[17]; [23]
  decrease in belumosudil Cmax: 68%
[17]; [24]
  decrease in belumosudil AUC: 80%
  decrease in belumosudil Cmax: 87%
[17]; [25]
  decrease in belumosudil AUC: […]
  decrease in belumosudil Cmax: […]
[18]; oral
  doses with maternal toxicity (body weight loss and mortality): […]
[18]; oral, spontaneous abortion, post-implantation loss, malformations, decreased fetal weight
  doses with embryo-fetal effects: […]
[18]; organogenesis
  maternal exposure (AUC) causing embryo-fetal mortality and malformations vs patients: less than those in patients at the recommended dose
CYP2C19
  CYP2C19 inhibition: inhibitor
[19]
  maternal exposure (AUC) multiple of human exposure with adverse developmental outcomes: […]
